Experimental findings from patent US11180483B2, “Substituted reverse pyrimidine Bmi-1 inhibitors” (PTC Therapeutics, Inc., priority 2012, dated 2021) are described below.

For this test, the system named is Bmi-1. The test is described as follows: Sandwich ELISA Assay (Bmi-1 ELISA) in HT-1080 cells. It counts as cell-based. The method, then:
Cell Seeding and Compound Treatment (Day 1):
HT-1080 cells were seeded at 8000 cells/well (50 μL) in 96-well tissue culture plates. After the cells became adherent (3-4 hours), 2× diluted stocks of test compounds in 50 μL DMEM containing 1% DMSO (final DMSO concentration was 0.5%) were added and the plates were incubated at 37° C. under 5% CO2 for 40-48 hours.
ELISA Plate First Antibody Preparation (Day 2):
The First Antibody (Millipore Mouse, monoclonal to mouse Bmi-1, clone F6, catalog #05-637) diluted to 2 μg/mL in PBS was added (100 μL) to each well of a Nunc MaxiSorp 96-well ELISA plate. The plate was covered with a plate seal and allowed to stand overnight.
Cell Lysate Preparation (Day 3):
Fresh 1× Lysis buffer was prepared on the day of the assay as follows: 1 mM EDTA, 150 mM NaCl, 0.5% Triton-X 100, 10 mM NaF, 20 mM B-Glycerophosphate, 1 mM DTT (in PBS, pH 7.2-7.4) and 1× HALT protease inhibitor cocktail (Pierce #78410).
The 1× Lysis Buffer (40 μL) was added to each well and the plate was shaken for 5-10 minutes on an orbital shaker to allow cell lysis, then diluent (1% BSA in PBS in 0.5% NP40) (100 μL) was added to each well.
A standard curve was prepared at the following Bmi-1 concentrations: 8000, 4000, 2000, 1000, 500, 250, 125, 0 pg/mL The Bmi-1 Recombinant Protein Standard (Novus Biologicals PCGF4 Recombinant Protein (P01), catalog #H00000648-P01) used to prepare the standard curve was stored at −80° C. On first thaw, the Bmi-1 Recombinant Protein Standard was diluted to […] in Blocking Buffer (1% BSA in PBS; BSA: Fisher Scientific Catalog #1600-100). Aliquots were taken and refrozen at −80° C. The aliquots may be kept at 4° C. and reused after first thaw, but only within 1-2 weeks. The Bmi-1 Recombinant Protein Standard contains a GST-fusion tag that appears around 70 Kda on Western Blot.
The prepared ELISA plate was washed 3× with Wash Buffer (0.05% Tween-20 in PBS). The final wash was removed from the plate and the plate was blotted dry. Blocking Buffer (300 μL) (1% BSA in PBS) was added to each well. The plate was covered with a plate seal and incubated at room temperature for 1 hour. The blocked plate was washed 3× with Wash Buffer, then the final wash was removed and the plate was blotted dry. The previously prepared samples and standards were added (100 μL/well) and the plate was covered with a plate seal and incubated at 4° C. overnight.
The prepared ELISA plate was removed from 4° C., incubated at room temperature for 30 minutes, then washed and blotted dry as previously described for Day 3. The Second Antibody (Cell Signaling Rabbit anti-Bmi-1, Cat #2830) diluted to 1:600 in Blocking Buffer was added (100 μL) to each well, except as needed for background control wells. The plate was covered with a plate seal and incubated for 1.5 hrs at room temperature.
The ELISA plate was washed and blotted dry as previously described. The Third Antibody (Cell Signaling HRP conjugated anti-rabbit IgG (CellSignaling, Cat #:7074) diluted to 1:300 in Blocking Buffer was added (100 μL) to each well, except as needed for background control wells. The plate was incubated for 1 hr at room temperature.
The plate was washed and blotted dry as previously described, then prepared TMB substrate (TMB substrate kit, Pierce catalog #34021) (prepared by mixing kit reagents 1:1) (100 μL) was added per well. The plate was incubated for 20-30 minutes at room temperature in the dark, then Stop Solution (2 M sulfuric acid in water) (50 μL) was added per well. The plates were read at OD450 (experimental) and OD570 (reference).
(ELISA stands for enzyme-linked immunosorbent assay.)
What is called EC50 is the concentration that produces a half-maximal response. Lower therefore signals an effect from little substance. `Cc1nc2ccccc2n1-c1nc(NCCO)cc(Nc2ccc(C(F)(F)F)cc2)n1` [Cpd 57, 2-{[2-(2-methyl-1H-benzimidazol-1-yl)-6-{[4-(trifluoromethyl)phenyl]amino}pyrimidin-4-yl]amino}ethanol] showed an EC50 of 100 to 3000 nM. As to `COCCNc1cc(Nc2ccc(C(F)(F)F)cc2)nc(-n2c(C)nc3ccccc32)n1` [Cpd 58, N^4-(2-methoxyethyl)-2-(2-methyl-1H-benzimidazol-1-yl)-N^6-[4-(trifluoromethyl)phenyl]pyrimidine-4,6-diamine], the EC50 was in the range of 100 to 3000 nM.

Molecule `COCCNc1cc(Nc2ccc(OC(F)F)cc2)nc(-n2c(C)nc3ccccc32)n1` [Cpd 59, N^4-[4-(difluoromethoxy)phenyl]-N^6-(2-methoxyethyl)-2-(2-methyl-1H-benzimidazol-1-yl)pyrimidine-4,6-diamine] came in with an EC50 of 100 to 3000 nM. The molecule `COc1ccc(Nc2ccnc(-c3c(C(F)(F)F)nn4ccccc34)n2)cc1` [Cpd 60, N-(4-methoxyphenyl)-2-[2-(trifluoromethyl)pyrazolo[1,5-a]pyridin-3-yl]pyrimidin-4-amine] gave an EC50 of 10 to 100 nM. For `Cc1nc2ccccc2n1-c1nccc(Nc2ccc(OC(F)F)cc2)n1` [Cpd 61, N-[4-(difluoromethoxy)phenyl]-2-(2-methyl-1H-benzimidazol-1-yl)pyrimidin-4-amine], the EC50 lay within 100 to 3000 nM. Molecule `Cc1ccc(Nc2ccnc(-c3c(C(F)(F)F)nc4cnccn34)n2)cc1` [Cpd 62, N-(4-methylphenyl)-2-[2-(trifluoromethyl)imidazo[1,2-a]pyrazin-3-yl]pyrimidin-4-amine] displayed an EC50 of 10 to 100 nM. The molecule `Cc1nc2ccccc2n1-c1nc(N)cc(Nc2ccc(C(F)(F)F)cc2)n1` [Cpd 63, 2-(2-methyl-1H-benzimidazol-1-yl)-N-[4-(trifluoromethyl)phenyl]pyrimidine-4,6-diamine] had an EC50 of 10 to 100 nM. Consider `Cc1nc2cc(F)c(F)cc2n1-c1nc(N)cc(Nc2ccc(C(F)(F)F)cc2)n1` [Cpd 64, 2-(5,6-difluoro-2-methyl-1H-benzimidazol-1-yl)-N-[4-(trifluoromethyl)phenyl]pyrimidine-4,6-diamine], for which the EC50 fell in the range of 10 to 100 nM. As for `Nc1cc(Nc2ccc(OC(F)F)cc2)nc(-c2c(C(F)(F)F)nc3ccccn23)n1` [Cpd 65, N-[4-(difluoromethoxy)phenyl]-2-[2-(trifluoromethyl)imidazo[1,2-a]pyridin-3-yl]pyrimidine-4,6-diamine], the figure is 10 to 100 nM. As for `Cc1nc2ccc(F)cn2c1-c1nc(N)cc(Nc2ccc(C(F)(F)F)cc2)n1` [Cpd 68, 2-(6-fluoro-2-methylimidazo[1,2-a]pyridin-3-yl)-N-[4-(trifluoromethyl)phenyl]pyrimidine-4,6-diamine], the figure is 10 to 100 nM; as for `Cc1nc2ccc(F)cc2n1-c1nc(N)cc(Nc2ccc(C(F)(F)F)cc2)n1` [Cpd 71, 2-(6-fluoro-2-methyl-1H-benzimidazol-1-yl)-N-[4-(trifluoromethyl)phenyl]pyrimidine-4,6-diamine], 10 to 100 nM; as for `Cc1nc2ncccc2n1-c1nc(N)cc(Nc2ccc(C(F)(F)F)cc2)n1` [Cpd 73, 2-(2-methyl-1H-imidazo[4,5-b]pyridin-1-yl)-N-[4-(trifluoromethyl)phenyl]pyrimidine-4,6-diamine], 10 to 100 nM. `Cc1nc2cc(F)c(F)cc2n1-c1nc(N)cc(Nc2ccc(C(F)(F)F)c(F)c2)n1` [Cpd 74, 2-(5,6-difluoro-2-methyl-1H-benzimidazol-1-yl)-N-[3-fluoro-4-(trifluoromethyl)phenyl]pyrimidine-4,6-diamine] displayed an EC50 of 100 to 3000 nM. Next, `Cc1cc2nc(C)n(-c3nc(N)cc(Nc4ccc(C(F)(F)F)cc4)n3)c2cc1C` [Cpd 79, N-[4-(trifluoromethyl)phenyl]-2-(2,5,6-trimethyl-1H-benzimidazol-1-yl)pyrimidine-4,6-diamine]: 100 to 3000 nM; `Cc1nc2ccccc2n1-c1nc(N)cc(Nc2ccc(C(F)(F)F)c(F)c2)n1` [Cpd 80, N-[3-fluoro-4-(trifluoromethyl)phenyl]-2-(2-methyl-1H-benzimidazol-1-yl)pyrimidine-4,6-diamine]: 10 to 100 nM.

The molecule `Nc1cc(Nc2ccc(C(F)(F)F)cc2)nc(-n2c(C3CC3)nc3ccc(F)cc32)n1` [Cpd 82, 2-(2-cyclopropyl-6-fluoro-1H-benzimidazol-1-yl)-N-[4-(trifluoromethyl)phenyl]pyrimidine-4,6-diamine] yielded an EC50 of 10 to 100 nM.

`Nc1cc(Nc2ccc(C(F)(F)F)cc2)nc(-n2c(C3CC3)nc3cc(F)ccc32)n1` [Cpd 83, 2-(2-cyclopropyl-5-fluoro-1H-benzimidazol-1-yl)-N-[4-(trifluoromethyl)phenyl]pyrimidine-4,6-diamine] showed an EC50 of 10 to 100 nM. As for `Nc1cc(Nc2ccc(C(F)(F)F)cc2)nc(-c2c(CO)nc3ccc(F)cn23)n1` [Cpd 84, [3-(4-amino-6-{[4-(trifluoromethyl)phenyl]amino}pyrimidin-2-yl)-6-fluoroimidazo[1,2-a]pyridin-2-yl]methanol], the figure is 100 to 3000 nM.

As to `Cc1nc2ccc(Br)cc2n1-c1nc(N)cc(Nc2ccc(C(F)(F)F)cc2)n1` [Cpd 85, 2-(6-bromo-2-methyl-1H-benzimidazol-1-yl)-N-[4-(trifluoromethyl)phenyl]pyrimidine-4,6-diamine], the EC50 lay in the range of 100 to 3000 nM. Consider `Cc1ccc2nc(C)n(-c3nc(N)cc(Nc4ccc(C(F)(F)F)cc4)n3)c2c1` [Cpd 86, 2-(2,6-dimethyl-1H-benzimidazol-1-yl)-N-[4-(trifluoromethyl)phenyl]pyrimidine-4,6-diamine], for which the EC50 is 10 to 100 nM. Next, `CCc1ccc2nc(C)n(-c3nc(N)cc(Nc4ccc(C(F)(F)F)cc4)n3)c2c1` [Cpd 87, 2-(6-ethyl-2-methyl-1H-benzimidazol-1-yl)-N-[4-(trifluoromethyl)phenyl]pyrimidine-4,6-diamine]: 100 to 3000 nM.

As to `Cc1nc2c(F)cc(F)cc2n1-c1nc(N)cc(Nc2ccc(C(F)(F)F)cc2)n1` [Cpd 88, 2-(4,6-difluoro-2-methyl-1H-benzimidazol-1-yl)-N-[4-(trifluoromethyl)phenyl]pyrimidine-4,6-diamine], the EC50 fell in the range of 10 to 100 nM. `Cc1nc2c(F)cc(F)cc2n1-c1nc(N)cc(Nc2ccc(C(F)(F)F)c(F)c2)n1` [Cpd 89, 2-(4,6-difluoro-2-methyl-1H-benzimidazol-1-yl)-N-[3-fluoro-4-(trifluoromethyl)phenyl]pyrimidine-4,6-diamine]: the EC50 was in the range of 100 to 3000 nM.

For `Cc1nc2c(F)cc(F)cc2n1-c1nc(NCCO)cc(Nc2ccc(C(F)(F)F)cc2)n1` [Cpd 90, 2-{[2-(4,6-difluoro-2-methyl-1H-benzimidazol-1-yl)-6-{[4-(trifluoromethyl)phenyl]amino}pyrimidin-4-yl]amino}ethanol], the EC50 lay in the range of 100 to 3000 nM.

In the case of `C=Cc1ccc2nc(C)n(-c3nc(N)cc(Nc4ccc(C(F)(F)F)cc4)n3)c2c1` [Cpd 91, 2-(6-ethenyl-2-methyl-1H-benzimidazol-1-yl)-N-[4-(trifluoromethyl)phenyl]pyrimidine-4,6-diamine], the EC50 lay within 100 to 3000 nM. Consider `Nc1cc(Nc2ccc(C(F)(F)F)cc2)nc(-n2c(C3CC3)nc3ncc(F)cc32)n1` [Cpd 92, 2-(2-cyclopropyl-6-fluoro-1H-imidazo[4,5-b]pyridin-1-yl)-N-[4-(trifluoromethyl)phenyl]pyrimidine-4,6-diamine], for which the EC50 lay in the range of 10 to 100 nM.

Regarding `Cc1nc2ccc(Cl)cc2n1-c1nc(N)cc(Nc2ccc(C(F)(F)F)cc2)n1` [Cpd 93, 2-(6-chloro-2-methyl-1H-benzimidazol-1-yl)-N-[4-(trifluoromethyl)phenyl]pyrimidine-4,6-diamine], the EC50 fell in the range of 10 to 100 nM.
